Assay results taken from patent EP0819121B1, “TRICYCLIC COMPOUNDS USEFUL FOR INHIBITION OF G-PROTEIN FUNCTION AND FOR TREATMENT OF PROLIFERATIVE DISEASES” (SCHERING CORPORATION, priority 1995, dated 1996).
Like-named read-outs stand apart in the source and are kept apart here.

Tests used:
[1] = target: farnesyl protein transferase (Homo sapiens, UniProt P49354+P49356); assay: FPT inhibition, in vitro enzyme assay (SPA, transfer of [3H]farnesyl to biotinylated Ras-peptide; or methods of WO 95/10516); assay type: biochemical; conditions: values given as ranges
Protocol: (§1) In some assays, FPT IC50 (inhibition of farnesyl protein transferase, in vitro enzyme assay) is determined by the methods described in WO 95/10516. COS Cell IC50 (Cell-Based Assay) and Cell Mat assay are determined by the methods described in WO 95/10516. GGPT IC50 (geranylgeranyl protein transferase, in vitro enzyme assay) and in vitro tumor activity can be determined by the methods disclosed in WO 95/10516.
In some assays, the inhibition of famesyi protein transferase was assayed by measuring the transfer of [^3H]farnesyl from [^3H]famesylpyrophosphate to biotinylated Ras-peptide (biotin-KKSKTKCVIM) using the conditions described below for each 96-well plate to be tested.
An assay buffer is prepared consisting of 40 mM Hepes, pH 7.5; 5 mM dithiothreitol; 20 mM magnesium chloride and 0.01 (v/v)% Igepal nonionic detergent.
A SPA (scintillation proximity assay) bead suspension is prepared consisting of 50 mg of Streptavidin SPA beads (Amersham Life-Science) suspended in 2.5 mL of PBS (phosphate buffered saline). Immediately prior to running the assay a stop solution is prepared consisting of 480 µL of the SPA bead suspension mixed with 6720 µL of a solution consisting of 250 mM EDTA (pH 8.0) and 0.5% Bovine Serium Albumin (Fraction V, 96-99% albumin).
(§2) In some assays, to determine FPT IC50, an assay mixture is prepared consisting of 480 µL of assay buffer and 3052.8 µL of water. This mixture is vortexed to homogeneity and 48 µL of the Ras peptide is added. The mixture is vortexed and 15.36 µL of FPP and 3.84 µL of [^3H]FPP are added and the mixture vortexed again. 37.5 µL of this assay mixture and 2.5µL of a DMSO solution (at test concentration) of the compound being tested are then added to each well of a Costar polypropylene U-bottom microtiter plate. The plate is sonicated for 15 minutes at 37°C and then shaken for 15 minutes on a plate shaker. 10 µL of the enzyme (recombinant Human farnesyl protein transferase) is added to each well using a Beckman Biomek 2000. The plate is incubated at room temperature for 20 minutes and then quenched with 75 µL of the stop solution. 100 µL of the quenched reaction mixture from each well is then transferred to a Wallac crosstalk-free microtiter plate using a Beckman Biomek 2000. Radioactivity is measured in a Wallac 1450 Microbeta plus liquid scintillation counter. Percent inhibition is calculated relative to an uninhibited control.
as §2, with “farnesyl transferase inhibition,” for “FPT IC50,”, “buffer,” for “buffer and”, “water and 240 µL of DMSO.” for “water.”, “40” for “37.5”, “is” for “and 2.5µL of a DMSO solution (at test concentration) of the compound being tested are”, “plate, each well of which contains a dry sample of the compound being tested.” for “plate.”

Normal Cells = assay: Cell Mat assay, cell growth inhibition, normal cells (methods of WO 95/10516); assay type: cell-based
Protocol: as §1

Tumor Cells = assay: Cell Mat assay, cell growth inhibition, tumor cells (methods of WO 95/10516); assay type: cell-based
Protocol: as §1

COS Cells = assay: COS cell assay, inhibition of RAS processing (cell-based, methods of WO 95/10516)
Protocol: as §1

[2] = read-out: Cell Growth Inhibition MAT Assay Normal Cells IC50
[3] = read-out: Cell Growth Inhibition MAT Assay Tumor Cells IC50
[4] = read-out: Activity in COS Cells Inhibition of RAS Processing IC50 in µM
[5] = read-out: Activity in COS Cells Inhibition of RAS Processing IC50

Row | Structure (SMILES) | FPT Inhibition IC50 [1] | further results
1 | N[C@@H](CS)CN1CCN(C2c3ccc(Cl)cc3CCc3cc(Br)cnc32)CC1 (some centres unmarked) [EX1] |  | IC50 [1]: > 100000 nM
2 | N[C@@H](CSSC[C@H](N)C(=O)N1CCN(C2c3ccc(Cl)cc3CCc3cc(Br)cnc32)CC1)C(=O)N1CCN(C2c3ccc(Cl)cc3CCc3cc(Br)cnc32)CC1 (some centres unmarked) [EX 20, Step B] | 10 to 10000 nM | 
3 | N[C@@H](CS)C(=O)N1CCN(C2c3ccc(Cl)cc3CCc3cc(Br)cnc32)CC1 (some centres unmarked) [EX 21, Step B] | 10 to 10000 nM | 
4 | COc1ccc(CSC[C@H](NC(=O)OC(C)(C)C)C(=O)N2CCC(=C3c4ccc(Cl)cc4CCc4cccnc43)CC2)cc1 [EX 30] | 10 to 10000 nM | IC50 (Normal Cells; [2]): > 50 µM; IC50 (Tumor Cells; [3]): > 50 µM
5 | COc1ccc(CSC[C@H](N)C(=O)N2CCC(=C3c4ccc(Cl)cc4CCc4cccnc43)CC2)cc1 [EX 31] | 10 to 10000 nM | IC50 (Normal Cells; [2]): 18 µM; IC50 (Tumor Cells; [3]): 12.5 µM
6 | CNC(=O)C1CN(C2c3ccc(Cl)cc3CCc3cc(Br)cnc32)CCN1C(=O)Cc1cccnc1 (centres unmarked) [EX 32-A] | 10 to 10000 nM | 
7 | CC(C)NC(=O)C1CN(C2c3ccc(Cl)cc3CCc3cc(Br)cnc32)CCN1C(=O)Cc1cccnc1 (centres unmarked) [EX 32-B] | 10 to 10000 nM | 
8 | CC(C)NC(=O)C1CN(C2c3ccc(Cl)cc3CCc3cc(Br)cnc32)CCN1C(=O)Cc1ccncc1 (centres unmarked) [EX 32-C] | 10 to 10000 nM | 
9 | CCOC(=O)C1CN(C2c3ccc(Cl)cc3CCc3cc(Br)cnc32)CCN1C(=O)Cc1cccnc1 (centres unmarked) [EX 33] | 10 to 10000 nM | 
10 | CC(C)NC(=O)CC1CN(C2c3ccc(Cl)cc3CCc3cc(Br)cnc32)CCN1C(=O)Cc1cccnc1 (centres unmarked) [EX 34] | 10 to 10000 nM | 
11 | CCCC[C@H]1CN(C2c3ccc(Cl)cc3CCc3cc(Br)cnc32)CCN1C(=O)Cc1cc[n+]([O-])cc1 (some centres unmarked) [EX 36] | 10 to 10000 nM | IC50 (COS Cells; [4]): 0.01 to 10 µM; IC50 (Normal Cells; read-out: Cell Growth Inhibition MAT Assay Normal Cells IC50 in µM): > 25 µM; IC50 (Tumor Cells; read-out: Cell Growth Inhibition MAT Assay Tumor Cells IC50 in µM): 1.6 µM
12 | CCCC[C@H]1CN(C2c3ccc(Cl)cc3CCc3cc(Br)cnc32)CCN1C(=O)CC1CCN(C(N)=O)CC1 (some centres unmarked) [EX 37, Step C] | 10 to 10000 nM | IC50 (COS Cells; [5]): 0.01 to 10 µM; IC50 (Normal Cells; [2]): 18 µM; IC50 (Tumor Cells; [3]): 3.1 µM
13 | COCC[C@H]1CN(C2c3ccc(Cl)cc3CCc3cc(Br)cnc32)CCN1C(=O)CC1CCNCC1 (some centres unmarked) [EX 39, Step B] | 10 to 10000 nM | 
14 | COCC[C@H]1CN(C2c3ccc(Cl)cc3CCc3cc(Br)cnc32)CCN1C(=O)CC1CCN(C(N)=O)CC1 (some centres unmarked) [EX 39, Step C] | 10 to 10000 nM | IC50 (COS Cells; [5]): 0.01 to 10 µM; IC50 (Normal Cells; [2]): > 25 µM; IC50 (Tumor Cells; [3]): < 1.6 µM
15 | CCCCNC(=O)C1CN(C2c3ccc(Cl)cc3CCc3cc(Br)cnc32)CCN1C(=O)CC1CCN(C(N)=O)CC1 (centres unmarked) [EX 41] | 10 to 10000 nM | 
16 | O=C(NCc1cccnc1)C1CN(C2c3ccc(Cl)cc3CCc3cc(Br)cnc32)CCN1C(=O)CCc1ccccc1 (centres unmarked) [EX 43] | 10 to 10000 nM | 
17 | CCCCNC(=O)C1CN(C2c3ccc(Cl)cc3CCc3cc(Br)cnc32)CCN1C(=O)OC1CCN(C(C)=O)CC1 (centres unmarked) [EX 44] | 10 to 10000 nM | 
18 | CNC(=O)CC1CN(C2c3ccc(Cl)cc3CCc3cc(Br)cnc32)CCN1C(=O)Cc1cccnc1 (centres unmarked) [EX 46] | 10 to 10000 nM | 
19 | O=C(NC1CC1)C1CN(C2c3ccc(Cl)cc3CCc3cc(Br)cnc32)CCN1C(=O)Cc1ccncc1 (centres unmarked) [EX 47] | 10 to 10000 nM | 
20 | CN(Cc1ccccc1[N+](=O)[O-])C(=O)C1CN(C2c3ccc(Cl)cc3CCc3cc(Br)cnc32)CCN1C(=O)Cc1cccnc1 (centres unmarked) [EX 48] |  | IC50 [1]: 10000 to 100000 nM
21 | O=C(Cc1ccncc1)N1CCN(C2c3ccc(Cl)cc3CCc3cc(Br)cnc32)CC1CO (centres unmarked) [EX 50] | 10 to 10000 nM | 
22 | CNC(=O)CC1CN(C2c3ccc(Cl)cc3CCc3cc(Br)cnc32)CCN1C(=O)Cc1ccncc1 (centres unmarked) [EX 51] | 10 to 10000 nM | 
23 | O=C(CC1CN(C2c3ccc(Cl)cc3CCc3cc(Br)cnc32)CCN1C(=O)Cc1ccncc1)NC1CC1 (centres unmarked) [EX 54] | 10 to 10000 nM | 
24 | CNC(=O)C1CN(C2c3ccc(Cl)cc3CCc3cc(Br)cnc32)CCN1C(=O)Cc1ccncc1 (centres unmarked) [EX 55] | 10 to 10000 nM | 
25 | N[C@@H](CS)CN1CCC(=C2c3ccc(Cl)cc3CCc3cc(Br)cnc32)CC1 [EX 56A] |  | IC50 [1]: > 100000 nM
26 | CC(C)N(C)C(=O)C1CN(C2c3ccc(Cl)cc3CCc3cc(Br)cnc32)CCN1C(=O)Cc1ccncc1 (centres unmarked) [EX 56] | 10 to 10000 nM | 
27 | COCC[C@H]1CN(C2c3ccc(Cl)cc3CCc3cc(Br)cnc32)CCN1C(=O)Cc1cc[n+]([O-])cc1 (some centres unmarked) [Ex 38] | 10 to 10000 nM | IC50 (COS Cells; [4]): 0.01 to 10 µM
